Test results: ChEMBL document CHEMBL1149963, “Synthesis of a novel series of 3-oxo-2,4-dioxobicyclo[3.2.1]octanes: additional evidence for two thromboxane receptor subtypes” (Bioorg Med Chem Lett, 1994); call rule not given here

Assays:
Thromboxane A2 receptor [1] = target: T1, Thromboxane A2 receptor (Rattus norvegicus, UniProt P34978); assay: Activity against thromboxane A2 receptor evaluated by contraction of isolated rat thoracic aorta; format: tissue-based
T1 sequence (P34978 whole entry): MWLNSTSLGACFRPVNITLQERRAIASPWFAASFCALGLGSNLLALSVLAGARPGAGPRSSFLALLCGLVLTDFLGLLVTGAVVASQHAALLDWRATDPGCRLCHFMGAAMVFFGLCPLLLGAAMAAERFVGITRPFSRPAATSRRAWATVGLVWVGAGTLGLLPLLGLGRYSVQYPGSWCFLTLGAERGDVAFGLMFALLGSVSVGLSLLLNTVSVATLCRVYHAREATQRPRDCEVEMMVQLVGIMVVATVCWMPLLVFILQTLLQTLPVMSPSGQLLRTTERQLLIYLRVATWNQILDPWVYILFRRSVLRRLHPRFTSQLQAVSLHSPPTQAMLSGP

Thromboxane A2 receptor [2] = target: T2, Thromboxane A2 receptor (Homo sapiens, UniProt P21731); assay: Activity against thromboxane A2 receptor evaluated by aggregation of human platelets at 0-10 uM; Not active
T2 sequence (P21731 whole entry): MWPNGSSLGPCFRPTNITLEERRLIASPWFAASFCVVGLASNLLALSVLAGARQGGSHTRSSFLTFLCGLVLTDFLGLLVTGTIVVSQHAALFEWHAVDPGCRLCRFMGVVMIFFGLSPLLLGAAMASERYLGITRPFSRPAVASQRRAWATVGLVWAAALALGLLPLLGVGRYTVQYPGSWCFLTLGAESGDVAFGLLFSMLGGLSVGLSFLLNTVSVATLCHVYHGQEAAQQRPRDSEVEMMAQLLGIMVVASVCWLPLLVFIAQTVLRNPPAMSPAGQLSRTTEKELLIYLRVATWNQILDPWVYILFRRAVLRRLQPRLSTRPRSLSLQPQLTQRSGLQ

Row | SMILES | EC50 (Thromboxane A2 receptor [1]) | EC50 (Thromboxane A2 receptor [2])
1 | CCCCCC(O)/C=C/[C@@H]1[C@@H](C/C=C\CCCC(=O)NC(C)C)[C@@H]2C[C@H]1OC(=O)O2 (stereo partly specified) | 324 nM | Not Active
2 | CCCCCC(O)/C=C/[C@@H]1[C@@H](C/C=C\CCCC(=O)O)[C@@H]2C[C@H]1OC(=O)O2 (stereo partly specified) | 0.23 nM | –
3 | CCCCCC(O)/C=C/[C@@H]1[C@@H](C/C=C\CCCC(N)=O)[C@@H]2C[C@H]1OC(=O)O2 (stereo partly specified) | 58 nM | –
4 | CCCCCC(O)/C=C/[C@@H]1[C@@H](C/C=C\CCCCO)[C@@H]2C[C@H]1OC(=O)O2 (stereo partly specified) | 1 nM | Not Active
